In the data set the test system is human HeLa cell extracts. The data set can be described thus: O-acetyl-ADP ribose utilization by enzymes from human HeLa cell extracts. The format is in vitro ADME. The following applies: HeLa cell extract vs buffer control, time points up to 3 hrs, HPLC. The protocol:
P/CAF [^3H]-monoacetylation of H3 peptide. The histone acetyltransferase P/CAF was used to monoacetylate H3 peptide on Lysine 14 (12). P/CAF (0.175 μM) was mixed with [^3H]-acetyl CoA (33.3 μM, 1.88 Ci/mmol) and H3 peptide (175 μM) for 20 min at 25° C. prior to quenching with TFA to 1%. Mono [^3H]-acetylated H3 peptide was separated from unmodified H3 by HPLC analysis as described above. MALDI/ESI Mass Spectrometry Analyses. MALDI mass spectrometry was performed (Oregon State University, Environmental Health Sciences Center) on a custom-built reflector time-of-flight mass spectrometer equipped with a two-stage delayed extraction source. […] Every mass spectrum was recorded as the sum of 20 consecutive spectra, each produced by a single pulse of photons. […] The amount of [^3H]-AcLys14 H3 peptide and [^3H]-O-acetyl ADP ribose was determined by liquid scintillation counting of these species separated on reverse phase HPLC. […] Protein concentrations of supernatants were determined by the method of Bradford. […]
To provide evidence for the existence of human cellular proteins/enzymes that are capable of binding and catalyzing the conversion or decomposition of O-acetyl-ADP ribose, human HeLa cell extracts were generated and the ability of proteins within the extract to catalyze the decomposition of O-acetyl-ADP ribose was assessed. […]

One substance from patent US7521432B2, “Compositions and methods for identifying agents which regulate chromosomal stability, gene activation and aging” (priority 2000, dated 2009) can be followed below.

For the substance O-acetyl-ADP ribose, the “conversion/consumption of O-acetyl-ADP ribose by cell extract” value is reported as “convert O-acetyl-ADP ribose to a distinct, but as yet unidentified species”. In addition, the “conversion/consumption of O-acetyl-ADP ribose by cell extract” value (listed as O-acetyl ADP ribose) is on record as “capable of consuming O-acetyl ADP ribose”.
